Data reported in US9632075B2, “Prevention or attenuation of neuropathic pain by bile acids” (Metselex, Inc., priority 2011, dated 2017).

What was measured:
Assay type in all cases: in vivo, rat
paw withdrawal threshold = assay: von Frey testing for tactile hypersensitivity after SNL; settings: for withdrawal threshold of the ipsilateral hindpaw: TUDCA 300 mg/kg i.p.
Source text: (§1) Rats were divided into two experimental groups: a group in which the L5 spinal nerve was ligated and cut, and a sham-operated control group. The left L5 spinal nerve was isolated, tightly ligated and cut distal to the ligation under isoflurane anesthesia (1.5%). The surgical procedure for the sham-operated group was identical to that of the SNL group, except that the L5 spinal nerve was not ligated or cut. General behavior of the rats was monitored before and after the surgery. Any rats showing difficulty elevating a hindpaw were discarded from the study.
(§2) Rats were treated with 5,7-dihydroxytryptamine (5,7-DHT: 100 μg/10 μl, intracisternal injection) to induce loss of RVM serotonergic neurons. Rats were randomly assigned to one of four groups for these experiments: (1) L5 SNL with 5,7-DHT; (2) L5 SNL with vehicle injection; (3) sham with 5,7-DHT; and (4) sham with vehicle. Injections were given ten days after surgery; animals receiving vehicle injections received sterile saline (10 μl, intracisternal injection). To prevent damage to noradrenergic (NE) neurons, the inventors pre-treated animals 30 minutes before 5,7-DHT and saline administration with desipramine (20 mg/kg i.p.), an inhibitor of neuronal NE reuptake. To test the effects of inhibiting apoptosis on SNL, the inventors administered a systemically active inhibitor of apoptosis, tauroursodeoxycholic acid (TUDCA) (300 mg/kg i.p. or saline prior to and after surgery. For each group, injections were given every-other day, starting 3 days prior to surgery and continuing until sacrifice. To confirm the efficacy of TUDCA, the inventors tested its effects on dexamethasone-induced apoptosis in thymus. Two TUDCA injections (300 mg/kg i.p.) were given: one to two days prior to dexamethasone (1 mg/kg i.p.) administration and one the day of dexamethasone administration. Control animals were given saline injections instead of TUDCA solution. Rats were killed one day after dexamethasone administration.
Mechanical sensitivity was determined by measuring the paw withdrawal threshold in response to the application of von Frey filaments, using the up-down method of Chaplan. In brief, rats were placed on a wire mesh surface, covered by an inverted plastic cage and allowed to habituate for 15 min. Filaments were then applied to the plantar surface of the hindpaw. If application of the filament evoked no response, the next-larger filament was applied; if application elicited withdrawal, the next-smaller filament was applied. This sequence was repeated until the largest filament was used or until four filaments were applied after the first withdrawal was noted. Withdrawal thresholds were measured prior to surgery and at 2-3 day intervals after surgery. In all cases, thresholds were measured bilaterally.

RVM 5-HT neurons = assay: number of RVM 5-HT (TPH-ir) neurons after SNL, stereological cell counting
Source text: as §1, §2
(§3) The RVM and spinal cord were sectioned using a freezing microtome (Leica, SM2400) at a nominal thickness of 50 μm. […]

thymus = assay: dexamethasone-induced apoptosis in thymus (caspase-3 labeling); settings: TUDCA 300 mg/kg i.p., two injections; dexamethasone 1 mg/kg i.p.
Protocol: as §2, with “Rats were killed one day after dexamethasone administration.” left out

RVM neurons = assay: number of RVM neurons after spinal nerve ligation (SNL), stereological cell counting
Source text: as §1, §2, §3

RVM glia = assay: number of RVM glia after SNL (Nissl-stained tissue); settings: SNL rats
Source text: as §1, §2
Conventional microscopy was used to collect images of the RVM for cell counting. An Olympus BX50 fluorescence microscope (Tokyo, Japan) equipped with filter sets designed to allow selective visualization of Cy2 and Cy3 was used. Microscopic images were collected with a Scion 1346 digital camera. Confocal images were collected using an Olympus FluoView FV1000 microscope (Tokyo, Japan). ImageJ 1.29 (developed at NIH and available at http://rsb.info.nih.gov/ij/) or Photoshop were used to adjust contrast and brightness in images. […]
stereological methods were used for quantification as described previously. […] The sampling interval thereafter was determined based on the number of sections within the RVM and was usually every sixth section. […]

| Structure (SMILES) | mechanical hypersensitivity after SNL (paw withdrawal threshold; 5,7-DHT 100 μg/10 μl intracisternal injection ten days after surgery) | number of RVM 5-HT neurons contralateral to SNL (RVM 5-HT neurons; SNL rats, TUDCA 300 mg/kg i.p., contralateral) | number of RVM 5-HT neurons ipsilateral to SNL (RVM 5-HT neurons; SNL rats, TUDCA 300 mg/kg i.p., ipsilateral, vehicle 1,043±118) | number of RVM 5-HT neurons ipsilateral, higher than in vehicle-treated rats (RVM 5-HT neurons; ipsilateral, p<0.05, n=8) | withdrawal threshold of the ipsilateral hindpaw (paw withdrawal threshold; Day 4 post-SNL, vehicle 1.1±0.3 g) | withdrawal threshold of the ipsilateral hindpaw (paw withdrawal threshold; Day 6 post-SNL, vehicle 1.3±0.2 g) | withdrawal threshold of the ipsilateral hindpaw (paw withdrawal threshold; Day 8 post-SNL, vehicle 1.2±0.3 g) | withdrawal threshold of the ipsilateral hindpaw (paw withdrawal threshold; Day 10 post-SNL, vehicle 1.2±0.2 g) | SNL-induced mechanical hypersensitivity (paw withdrawal threshold; TUDCA 300 mg/kg i.p. every-other day) | tactile hypersensitivity one-to-three days after SNL (paw withdrawal threshold; one-to-three days after SNL, TUDCA) | caspase-3 labeling in thymus compared to dexamethasone alone (thymus) | number of RVM neurons ipsilateral to the lesion (RVM neurons; SNL rats, TUDCA 300 mg/kg i.p. every-other day, ipsilateral, vehicle 12,540±930) | number of RVM neurons contralateral to SNL (RVM neurons; SNL rats, TUDCA 300 mg/kg i.p., contralateral, saline 16,949±1,074) | number of RVM neurons ipsilateral, higher than in vehicle-treated SNL rats (RVM neurons; ipsilateral, p<0.05, n=8) | number of RVM glia contralateral after SNL (RVM glia; TUDCA, contralateral, vehicle 80,086±2,899) | number of RVM glia ipsilateral after SNL (RVM glia; TUDCA, ipsilateral, vehicle 85,541±2,972) | RVM glia contralateral, fewer than vehicle (RVM glia; contralateral, p<0.05) | RVM glia ipsilateral, fewer than vehicle (RVM glia; ipsilateral, p<0.05, n=7 TUDCA, n=6 vehicle) |
| --- | --- | --- | --- | --- | --- | --- | --- | --- | --- | --- | --- | --- | --- | --- | --- | --- | --- | --- |
| NCCc1c[nH]c2c(O)cc(O)cc12 [5,7-DHT, 5,7-dihydroxytryptamine] | partially reversed |  |  |  |  |  |  |  |  |  |  |  |  |  |  |  |  |  |
| C[C@H](CCC(=O)NCCS(=O)(=O)O)[C@H]1CC[C@H]2[C@@H]3[C@@H](O)C[C@@H]4C[C@H](O)CC[C@]4(C)[C@H]3CC[C@]12C [TUDCA, tauroursodeoxycholic acid] |  | 1,251±99 | 1,353±96 | 30% | 3.5 ± 0.5 g | 4.0 ± 0.5 g | 4.6 ± 1.1 g | 5.2 ± 1.3 g | partially reversed | does not reduce hypersensitivity | marked decrease | 17,976±1,202 | 16,675±828 | 43% | 60,437±4,315 | 62,306±3,736 | 25% | 27% |
